Laboratory results as given in patent publication US11986452B2, “Methods of reducing the risk of heart failure” (Amarin Pharmaceuticals Ireland Limited, priority 2021, dated 2024).

System: statin-treated patients with established CVD or at high risk for CVD, and hypertriglyceridemia
Assay: REDUCE-IT time-to-first-event analysis of adjudicated cardiovascular endpoints (primary, key secondary, secondary, tertiary)
Assay type: in vivo, human
Text: The following study, also referred to as the REDUCE-IT clinical trial, was a large cardiovascular (CV) outcome trial designed to assess CV risk reduction benefit of AMR101 treatment (commercially known as VASCEPA®) versus placebo on the 5-point primary composite endpoint: CV death, non-fatal stroke, non-fatal myocardial infarction (MI), coronary revascularizations, or unstable angina requiring hospitalization.
A multi-center, prospective, randomized, double-blind, placebo-controlled, parallel-group study was performed to evaluate the effect of AMR101 (4 g per day) on cardiovascular health and mortality in hypertriglyceridemic patients with cardiovascular disease or at high risk for cardiovascular disease. The intended expanded indication of the study was treatment with AMR101 as an add-on to statin therapy to reduce the risk of cardiovascular events in patients with clinical cardiovascular disease or with multiple risk factors for cardiovascular disease.
The primary objective of this study was, in patients at LDL-C goal while on statin therapy, with established cardiovascular disease (CVD) or at high risk for CVD, and hypertriglyceridemia (e.g., fasting triglycerides (TG) 200 mg/dL and <500 mg/dL), to evaluate the effect of AMR101 4 g daily on time from randomization to first occurrence of any component of the composite of the following major CV events: CV death; nonfatal MI; (including silent MI; electrocardiograms (ECGs) were performed annually for the detection of silent MIs); nonfatal stroke; coronary revascularization; and unstable angina determined to be caused by myocardial ischemia by invasive/non-invasive testing and requiring emergent hospitalization.
The key secondary objective of this study was to evaluate the effect of AMR101 4 g daily on the time from randomization to the first occurrence of the composite of following major CV events: CV death, nonfatal MI (including silent MI), and nonfatal stroke.
Other secondary objectives for this study were to evaluate the effect of therapy on time from randomization to the first occurrence of the following individual or composite endpoints: composite of CV death or nonfatal MI (including silent MI); fatal or nonfatal MI (including silent MI); non-elective coronary revascularization represented as the composite of emergent or urgent classifications; CV death; unstable angina determined to be caused by myocardial ischemia by invasive/non-invasive testing and requiring emergent hospitalization; fatal or nonfatal stroke; composite of total mortality, nonfatal MI (including silent MI), or nonfatal stroke; and total mortality.
Primary Efficacy Endpoint: The primary efficacy endpoint was time from randomization to the first occurrence of the composite of the following clinical events: CV death; nonfatal MI (including silent MI; ECGs were performed annually for the detection of silent MIs); nonfatal stroke; coronary revascularization; and unstable angina determined to be caused by myocardial ischemia by invasive/non-invasive testing and requiring emergent hospitalization. The first occurrence of any of these major adverse vascular events during the follow-up period of the study were included in the incidence.
Secondary Efficacy Endpoints: The key secondary efficacy endpoint was the time from randomization to the first occurrence of the composite of CV death, nonfatal MI (including silent MI), or nonfatal stroke. […]

[1] = 4 g per day, hierarchical testing
[2] = 4 g/day, time to first occurrence, ITT, median follow up 4.9 years

CC/C=C\C/C=C\C/C=C\C/C=C\C/C=C\CCCC(=O)OCC [icosapent ethyl, eicosapentaenoic acid ethyl ester]
Cardiovascular death: RRR [1]: 20% | Composite of cardiovascular death or nonfatal myocardial infarction: RRR [1]: 25% | Composite of total mortality, nonfatal myocardial infarction, or nonfatal stroke: reduction [1]: 23% | Fatal or nonfatal myocardial infarction: RRR [1]: 31% | Fatal or nonfatal stroke: RRR [1]: 28% | Total mortality: reduction [1]: 13% | Sudden death: reduction (4 g/day vs placebo): 31% | Cardiovascular death: HR vs placebo (4 g/day, ITT): 0.80 | Cardiovascular death: patients with event (4 g/day, ITT): 4.3% | Total mortality: HR vs placebo (4 g/day, ITT): 0.87 | Total mortality: patients with event (4 g/day, ITT): 6.7% | Key secondary composite endpoint (CV death, nonfatal MI, or nonfatal stroke): patients with event [2]: 11.2% | Primary composite endpoint (CV death, nonfatal MI, nonfatal stroke, coronary revascularization, or unstable angina): patients with event [2]: 17.2% | Cardiac Arrest: HR vs placebo (tertiary endpoint): 0.52 | Coronary Revascularization: HR vs placebo (tertiary endpoint): 0.66 | Elective Revascularization: HR vs placebo (tertiary endpoint): 0.68 | Emergent Revascularization: HR vs placebo (tertiary endpoint): 0.62 | Ischemic Stroke: HR vs placebo (tertiary endpoint): 0.64 | New Heart Failure Requiring Hospitalization: HR vs placebo (tertiary endpoint): 0.97 | New Heart Failure: HR vs placebo (tertiary endpoint): 0.95 | Primary Endpoint in Patients with Diabetes at Baseline: HR vs placebo (tertiary endpoint): 0.77 | Salvage Revascularization: HR vs placebo (tertiary endpoint): 0.00 | Sudden Cardiac Death: HR vs placebo (tertiary endpoint): 0.69 | Urgent Revascularization: HR vs placebo (tertiary endpoint): 0.66 | Primary Endpoint in Patients with Diabetes at Baseline: patients with event (tertiary endpoint, 4 g/day): (18.1%) | Sudden Cardiac Death: patients with event (tertiary endpoint, 4 g/day): (1.5%)
